Results on three molecules are retold here after patent publication US6245758A, “Methods of use for peroxynitrite decomposition catalysts, pharmaceutical compositions therefor” (priority 1996, dated 2001).

One test relates to CuZnSOD. Kind of test: Inactivation of CuZnSOD by peroxynitrite (stopped flow superoxide dismutase activity). As to conditions: 250 uM EDTA alone.
Test [1] relates to carrageenan-induced paw edema. Kind of test: Carrageenan-induced paw edema. The test is classed as in vivo, rat. The text has this:
Carrageenan-induced paw edema. The effects of peroxynitrite catalysts in vivo were initially tested on the carrageenan-induced paw edema. The choice of using this in vivo model of inflammation was based on the knowledge that 1) the inflammatory response is blocked by NOS inhibitors and 2) by superoxide dismutase (SOD). This indicates the participation of both NO and of O2-. Male Sprague Dawley rats were purchased from Harlan Sprague-Dawley (Indianapolis, Ind.). Male Sprague Dawley rats (175-200 g) received a subplantar injection in the right hind paw of carrageenan (0.1 ml of a 1% suspension in 0.85% saline). Paw volume was measured by a plethysmometer immediately before the injection of carrageenan and then at hourly intervals from 1 to 6 h. Edema was expressed as the increase in paw volume (in ml) measured after carrageenan injection compared to the pre-injection value for individual animals.
(Carrageenan injected into the paw causes an acute inflammation.)

Test [2] in a line: Stopped-flow kinetic analysis of catalytic decomposition of peroxynitrite by metal complexes. As to conditions: pH = 7.4, 22° C. On the procedure: To screen metal complexes for peroxynitrite decomposition catalytic activity of the present invention, peroxynitrite is prepared and isolated as its sodium salt by the reaction of acidic hydrogen peroxide with sodium nitrite followed by rapid quenching with NaOH as set out by Halfpenny and Robinson, in J. Chem. So., 1952, 928-938. Peroxynitrite has an absorbance maximum at 302 nm with an extinction coefficient of 1670 M^-1 cm^-1. Therefore, it is possible to directly observe the decomposition of peroxynitrite by stop-flow spectrophotometric analysis by monitoring the decomposition of the absorbance at 302 nm. That is, such observation of the decomposition of peroxynitrite at a rate accelerated over the natural decomposition rate with the addition of the metal complex identifies a compound of the present invention.
Kinetic measurements were made on an OLIS Rapid Scanning Stopped-Flow Spectrometer (On-Line Instrument Systems Inc., Bogart, Ga.)) using the OLISRSM-1000 Operating system for data acquisition and manipulation.
Thus, in a typical experiment the natural background decomposition rate of sodium peroxynitrite was determined as follows. A 24 mM stock solution of sodium peroxynitrite in 50 mM NaOH is load into the small volume syringe and 100 mM potassium phosphate pH=7.4 is charged into the large volume syringe of the stopped-flow spectrophotometer. All stopped -flow measurements were made at 22 ° C. Injection of the solutions into the sample compartment results in ~25 fold dilution of the stock sodium peroxynitrite. […] To test for catalytic peroxynitrite decomposition activity, the metal complex was dissolved in 100 mM potassium phosphate buffer pH=7.4 and loaded into the large syringe and the decomposition of peroxynitrite was monitored as described above. The catalytic rate constant (kcat M-1 sec^-1) for the complexes tested was determined by varying the complex concentration and plotting kobs vs [complex] Table 1. The kobs were obtained from averages of three stopped flow analysis at each catalyst concentration.

Another test has as its system RAW 264.7 cells. Kind of test: Cell protection assay, Alamar Blue viability after peroxynitrite challenge. The test is classed as cell-based, murine. As to conditions: PN 500 micromolar; RAW cells, FIG. 9 (H2 TMPyP and ZnTMPyP: data not shown). On the procedure: FIG. 8: Comparison of Ni and Fe Catalyst Protection of RAW Cells from PN(peroxynitrite)-mediated Injury. RAW 264.7 cells were plated at approximately 2×10^5 per well of a 96-well plate. […] Each condition represents the mean of 4 wells ±sem.
FIG. 9: Protection from PN-mediated RAW Cell Injury by Fe Catalysts. Cells were treated with 500 micromolar PN in the presence or the absence of the following catalysts: FeTMPyP, FeTMPS, FeTPPS. Cell viability was monitored as described in the text and figure legends 1, 2 and 3. Values represent the mean of 4 determinations ±sem.
Protocol for Cell Protection Assays using Peroxynitrite Decomposition Catalysts: A cell viability assay was established to rapidly assess the efficacy of peroxynitrite(PN) catalysts in protecting cells from PN25 mediated injury and death. The peroxynitrite challenge consisted of a pulse of synthetic PN added exogenously to cells. In order to better assess the efficacy of PN catalysts in protecting cells from PN-mediated damage, a quantity of peroxynitrite(in 50 mM NaOH) determined to cause maximal injury(100%) was added as an exogenous pulse to each well of cells in the presence or absence of catalyst. The NaOH vehicle was not toxic by itself.
Cells(RAW 264.7 cells or P815 mastocytoma cells; American Type Culture Collection, Rockville, Md.) were plated to confluence on 96-well tissue culture plates. Each well is washed twice with Dulbecco's phosphate buffered saline(DPBS; GIBCO BRL, Grand Island, N.Y.) to remove protein and other serum components which might react with the exogenous peroxynitrite. To each well is then added 200 μl of DPBS. PN is next placed into separate wells at increasing concentrations and cell viability monitored. The dose at which maximal cell death is attained is then utilized for the catalyst protection assessment.
Phosphate-buffered saline (200 uL) containing increasing concentrations of catalyst is next placed into individual wells of cells. The maximal dose of PN is subsequently administered to all wells of cells. After 15 minutes, the medium is removed from each well and the cells are either allowed to recover overnight in Earles minimum essential medium without phenol red and supplemented with 10% fetal bovine serum or alternatively the plate of cells is assayed that day for mitochondrial integrity using the Alamar Blue viability assay(Alamar Biosciences, Inc.; Sacramento, Calif.). In either case, cells are incubated at 37° C. in 5% CO2.
Cell injury is measured as follows. Briefly, 10% Alamar Blue(v/v) in Earles MEM with 10% FBS is added to each well of cells for 1-2h. Cell metabolism of the dye generates a fluorescent product which is directly related to the number of viable cells. Moreover, the production of the fluorescent metabolite is linear for over 2 h. The amount of fluorescent product in 100 μl of conditioned medium from each well of cells is then measured with an IDEXX fluorescent plate reader (gain setting of 1%) at an emission wavelength of 575 nm after exciting at 545 nm. Viability is either given as absolute fluorescent units or as a percent of the value obtained for untreated cells(100%).

The test system of another test is rat jejunum. Kind of test: Intestinal vascular permeability (radiolabelled albumin leakage) after endotoxin (LPS). The format is in vivo. The conditions noted are these: 30 mg/kg, i.v, 3 h after LPS; determined 1 h later. On the procedure: FIG. 10 . Effects of FeTMPS, FeTMPyP or ZnTMPyP (30 mg/kg, i.v bolus) administered 3 h after challenge with E. coli lipopolysaccharide (LPS, 3 mg/kg, i.v bolus) on the increase in leakage of radio-labelled albumin (plasma extravasation, μl/g tissue) observed 1 h later (e.g 4 h after LPS challenge) in the rat jejunum. Results are shown as mean±s.e.m of 4-8 rats.
Intestinal vascular permeability was determined as the leakage into the jejunal tissue of [^125 I]-labelled bovine serum albumin ([^125 ]-BSA) administered intravenously (0.5 ml; 0.5 μCi) together with either LPS (3 mg/kg, serotype O111:B4) or isotonic saline. At 4 h after LPS administration, segments of jejunal tissue were ligated and removed. The intestinal tissues were rapidly washed, blotted dry and weighed. Blood (0.5 ml) was collected into tubes containing tri-sodium citrate (0.318% final concentration) and plasma prepared by centrifugation (10,000 g×10 min). The {^125 I]-BSA content in segments of whole tissue and in aliquots of plasma (100 μl) was determined in a gamma counter. The total content of plasma in the intestinal tissues was expressed as μl/g tissue. Changes in intravascular volume in the intestinal tissue was determined in an additional group of rats by administering ([^125 I]-BSA) intravenously 2 min before removal of the jejunum. The tissue and plasma content of radiolabel was determined and intravascular volume expressed as μl/g tissue. This value was substracted from that obtained in the plasma leakage studies to obtain a measure of the intestinal plasma albumin leakage. After LPS administration (4 h), there was a significant (P<0.01) increase in the plasma leakage (from 77±10 to 224±18 μl/g tissue, n=8).

Description for CuZnSOD: Stock solutions of bovine liver CuZnSOD (DDI Pharmaceuticals Inc., Mountain View CA) were prepared by dissolving -1.0 mg of enzyme in 10 mL of 50 mM potassium phosphate buffer at a pH=7.4. […] All kobs were the average of triplicate runs using a stopped flow spectrophotometer manufactured by Kinetic Instruments Inc. (Ann Arbor, Mich.) and was interfaced to a MAC IICX personal computer.
Inactivation of CuZn SOD by peroxynitrite.
Inactivation of peroxynitrite was performed by aloquating 1.0 mL of stock CuZn SOD solution into 50 mM potassium phosphate buffer pH=7.4 such that a final assay volume of 10 mL is achieved after addition of peroxynitrite and EDTA solutions. To these assay solution was added various amounts of peroxynitrite (25 mM stock solution) such that the final concentration of peroxynitrite in the assay varied from 0, 25, 50, 75 and 100 uM. After the addition of peroxynitrite, 100 uL of a 2.5 mM stock EDTA solution was added to each assay solution such that the final concentration of EDTA was 250 uM. Each solution was then assayed by stopped flow analysis for superoxide dismutase activity.

`O=C(O)CN(CCN(CC(=O)O)CC(=O)O)CC(=O)O` [EDTA]: the “CuZnSOD activity in control reaction” value in the test with CuZnSOD is reported as “no decrease in CuZnSOD activity”.
Turning to `CC(=O)[O-].O=S(=O)(O)c1ccc(-c2c3nc(c(-c4ccc(S(=O)(=O)O)cc4)c4ccc([n-]4)c(-c4ccc(S(=O)(=O)O)cc4)c4nc(c(-c5ccc(S(=O)(=O)O)cc5)c5ccc2[n-]5)C=C4)C=C3)cc1.[Fe+3]` [Fe(III)TPPS, Acetato-5,10,15,20-tetrakis(4-sulfonatophenyl)porphyrin iron(III)], the “% Inhibition of Paw Edema” value in test [1] (3 mg/kg i.v., 1 h post carrageenan) stood at 0%; in test [1] (3 mg/kg i.v., 2 h post carrageenan), 29%; in test [1] (3 mg/kg i.v., 3 h post carrageenan), 20%; in test [1] (3 mg/kg i.v., 4 h post carrageenan) it was 20%; in test [1] (3 mg/kg i.v., 5 h post carrageenan) it was 19%; in test [1] (3 mg/kg i.v., 6 h post carrageenan) it was 5%. Besides, the “% Inhibition of Paw Edema” value in test [1] (10 mg/kg i.v., 1 h post carrageenan) worked out at 0%; in test [1] (10 mg/kg i.v., 2 h post carrageenan), 17%; in test [1] (10 mg/kg i.v., 3 h post carrageenan), 20%; in test [1] (10 mg/kg i.v., 4 h post carrageenan) it was 23%; in test [1] (10 mg/kg i.v., 5 h post carrageenan), 19%; in test [1] (10 mg/kg i.v., 6 h post carrageenan) it was 20%. In addition, the “% Inhibition of Paw Edema” value is 0% in test [1] (30 mg/kg i.v., 1 h post carrageenan); 27% in test [1] (30 mg/kg i.v., 2 h post carrageenan); 25% in test [1] (30 mg/kg i.v., 3 h post carrageenan); 30% in test [1] (30 mg/kg i.v., 4 h post carrageenan); 34% in test [1] (30 mg/kg i.v., 5 h post carrageenan); 33% in test [1] (30 mg/kg i.v., 6 h post carrageenan). Moreover, the “kcat, catalytic rate constant for the decomposition of sodium peroxynitrite” value in test [2] worked out at 2.06e+06 M⁻¹ s⁻¹. Besides, the “protection of cells from PN-mediated injury” value in the test with RAW 264.7 cells is reported as “significant protection of cells”.
Regarding `C[n+]1ccc(-c2c3nc(c(-c4cc[n+](C)cc4)c4ccc([nH]4)c(-c4cc[n+](C)cc4)c4nc(c(-c5cc[n+](C)cc5)c5ccc2[nH]5)C=C4)C=C3)cc1.[Zn+2]` [ZnTMPyP, reference compound], the “inhibition of edema formation” value in test [1] (30 mg/kg i.v.) is “failed to inhibit edema formation”. In addition, the “kcat, catalytic rate constant for the decomposition of sodium peroxynitrite” value in test [2] is listed as “Inactive”. The radiolabelled albumin leakage result with rat jejunum is on record as “did not inhibit radiolabelled albumin leakage”. In the test with RAW 264.7 cells, the “protection of cells from PN-mediated injury” value is “relatively ineffective”.
